Data published in patent US20210113441A1, “BIOSOLVENT MIXTURE REMOVAL OF INFECTION-CAUSED NAIL DISCOLORATION” (Vertec BioSolvents, Inc., priority 2019, published 2021).

Assay: Solubility studies in 50/50 alcohol/ethyl lactate blends
Conditions: for Final concentration dissolved (clear, free of particulates): ambient temperature about 20-25 C

Structure (SMILES): Clc1ccccc1C(c1ccccc1)(c1ccccc1)n1ccnc1 [clotrimazole, Clotrimazole]
- Solubility (ethanol/ethyl lactate 50/50 blend (conclusion)): greater than 10 % w/w
- Final concentration dissolved (clear, free of particulates) (ethyl alcohol/ethyl lactate blend 50/50 w/w): 10.31%
- Solubility (isopropanol/ethyl lactate 50/50 blend (conclusion)): greater than 10 % w/w
- Final concentration dissolved (clear, free of particulates) (isopropyl alcohol/ethyl lactate blend 50/50 w/w): 10.07%
